Experimental data reported in US8431597B2, “Benzimidazole derivatives” (Pfizer Inc., priority 2007, dated 2013).
Where a name gives a salt, the structure may show the parent alone.

Target: T1, Smoothened (SMO) (Mus musculus, UniProt P56726)
T1 construct: C3H10T1/2 cells (ATCC #CCL-226) were split and seeded; endogenous in cells; host or cells: C3H10T1/2 (ATCC #CCL-226)
Assay: Smoothened (SMO)/Sonic Hedgehog (SHh) Transient Transcriptional Activation Assay (Gli-luciferase reporter in C3H10T1/2 cells)
Assay type: cell-based, murine
Conditions: C3H 10T1/2, 2 μM compound; transfected C3H10T1/2 cells, recombinant human SHh 250 ng/mL, 20 hours, luciferase readout; read-out: SMO CELL % INHIBITION @ 2 μM
Outline: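 C3H10T1/2 cells transiently transfected with a murine Gli-responsive firefly luciferase reporter plus pEGFP were serum-starved 20 h in 0.5% calf serum. Compound (2 μM to 2 nM final) was added with recombinant human SHh at 250 ng/mL final for 20 h at 37 °C. Read-out was Dual-Glo luminescence.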

T1 sequence (P56726 33-793): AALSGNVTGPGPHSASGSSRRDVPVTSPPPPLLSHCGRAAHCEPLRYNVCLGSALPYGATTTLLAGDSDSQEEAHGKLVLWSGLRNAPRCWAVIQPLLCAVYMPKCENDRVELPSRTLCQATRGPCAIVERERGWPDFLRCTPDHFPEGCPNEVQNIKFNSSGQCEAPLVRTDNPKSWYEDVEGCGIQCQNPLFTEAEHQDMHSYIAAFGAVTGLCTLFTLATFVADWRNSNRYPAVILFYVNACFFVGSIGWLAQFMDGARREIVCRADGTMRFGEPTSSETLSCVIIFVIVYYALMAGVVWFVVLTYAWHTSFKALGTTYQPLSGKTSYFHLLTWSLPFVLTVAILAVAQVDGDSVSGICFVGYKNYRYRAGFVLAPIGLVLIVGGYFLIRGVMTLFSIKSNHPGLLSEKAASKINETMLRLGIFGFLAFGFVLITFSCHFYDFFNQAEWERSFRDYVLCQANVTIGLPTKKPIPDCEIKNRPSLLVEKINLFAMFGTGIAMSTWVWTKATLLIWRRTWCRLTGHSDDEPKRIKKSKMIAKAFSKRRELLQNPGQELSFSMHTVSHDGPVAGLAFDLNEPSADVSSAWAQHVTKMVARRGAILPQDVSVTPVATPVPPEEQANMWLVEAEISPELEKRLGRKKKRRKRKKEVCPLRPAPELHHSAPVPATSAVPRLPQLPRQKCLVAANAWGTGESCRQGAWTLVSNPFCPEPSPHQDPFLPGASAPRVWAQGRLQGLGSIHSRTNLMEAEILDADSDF

| inhibition at 2 µM [%] | Structure (SMILES) |
| --- | --- |
| 64.5 | CN1CC[C@@H](NC(=O)c2ccc3nonc3c2)C[C@@H]1c1nc2ccccc2[nH]1 [Example 119, N-[(2R,4R)-2-(1H-benzimidazol-2-yl)-1-methylpiperidin-4-yl]-2,1,3-benzoxadiazole-5-carboxamide trifluoroacetate] |
| 105 | CC(C)c1ccc(NC(=O)N[C@@H]2CCN(C)[C@@H](c3nc4ccccc4[nH]3)C2)cc1 [Example 53, 1-[(2R.4R)-2-(1H-benzimidazol-2-yl)-1-methylpiperidin-4-yl]-3-(4-isopropylphenyl)urea hydrochloride] |
| 106 | COc1ccc(NC(=O)N[C@@H]2CCN(C)[C@@H](c3nc4ccccc4[nH]3)C2)cc1 [Example 37, 1-[(2R,4R)-2-(1H-benzimidazol-2-yl)-1-methylpiperidin-4-yl]-3-(4-methoxyphenyl)urea hydrochloride] |
| 69.6 | CN1CC[C@@H](NC(=O)c2cnn3ccccc23)C[C@@H]1c1nc2ccccc2[nH]1 [Example 115, N-[(2R,4R)-2-(1H-benzimidazol-2-yl)-1-methylpiperidin-4-yl]pyrazolo[1,5-a]pyridine-3-carboxamide trifluoroacetate] |
| 81.7 | COc1cccc(C(=O)N[C@@H]2CCN(C)[C@@H](c3nc4ccccc4[nH]3)C2)c1 [Example 112, N-[(2R,4R)-2-(1H-benzimidazol-2-yl)-1-methylpiperidin-4-yl]-3-methoxybenzamide trifluoroacetate] |
| 106 | CN1CC[C@@H](NC(=O)Nc2cc(F)cc3c2OCOC3)C[C@@H]1c1nc2ccccc2[nH]1 [Example 41, 1-[(2R,4R)-2-(1H-benzimidazol-2-yl)-1-methylpiperidin-4-yl]-3-(6-fluoro-4H-1,3-benzodioxin-8-yl)urea hydrochloride] |
| 99.2 | CN1CC[C@@H](NC(=O)c2ccc3c(c2)OCCO3)C[C@@H]1c1nc2ccc(C(F)(F)F)cc2[nH]1 [Example 79, N-{(2R,4R)-1-methyl-2-[6-(trifluoromethyl)-1H-benzimidazol-2-yl]piperidin-4-yl}-2,3-dihydro-1,4-benzodioxine-6-carboxamide hydrochloride] |
| 65.1 | Cc1cccc2cc(C(=O)N[C@@H]3CCN(C)[C@@H](c4nc5ccccc5[nH]4)C3)nn12 [Example 118, N-[(2R,4R)-2-(1H-benzimidazol-2-yl)-1-methylpiperidin-4-yl]-7-methylpyrazolo[1,5-a]pyridine-2-carboxamide trifluoroacetate] |
| 108 | COc1ccc2[nH]c([C@H]3C[C@H](NC(=O)Nc4ccc(C#N)cc4)CCN3C)nc2c1 [Example 29, 1-(4-cyanophenyl)-3-[(2R,4R)-2-(5-methoxy-1H-benzimidazol-2-yl)-1-methylpiperidin-4-yl]urea hydrochloride] |
| 74.5 | N#Cc1ccc(NC(=O)N[C@@H]2CCN(CCc3ccccc3)[C@@H](c3nc4ccccc4[nH]3)C2)cc1 [Example 98, 1-[(2R,4R)-2-(1H-benzimidazol-2-yl)-1-(2-phenyl-ethyl)piperidin-4-yl)-3-(4-cyanophenyl)urea] |
| 105 | Cc1ccc(NC(=O)N[C@@H]2CCN(C)[C@@H](c3nc4ccccc4[nH]3)C2)c(C)n1 [Example 48, 1-[(2R,4R)-2-(1H-benzimidazol-2-yl)-1-methylpiperidin-4-yl]-3-(2,6-dimethylpyridin-3-yl)urea hydrochloride] |
| 52.2 | CN1CC[C@@H](NC(=O)Cc2cccc(F)c2)C[C@@H]1c1nc2ccccc2[nH]1 [Example 123, N-[(2R,4R)-2-(1H-benzimidazol-2-yl)-1-methylpiperidin-4-yl]-2-(3-fluorophenyl)acetamide trifluoroacetate] |
| 83.2 | CN1CC[C@@H](NC(=O)Cc2ccccc2)C[C@@H]1c1nc2ccccc2[nH]1 [Example 110, N-[(2R,4R)-2-(1H-benzimidazol-2-yl)-1-methylpiperidin-4-yl]-2-phenylacetamide trifluoroacetate] |
| 114 | CN1CC[C@@H](NC(=O)c2ccc3c(c2)CCCO3)C[C@@H]1c1nc2ccccc2[nH]1 [Example 33, N-[(2R,4R)-2-(1H-benzimidazol-2-yl)-1-methylpiperidin-4-yl]chromane-6-carboxamide hydrochloride] |
| 35.3 | COc1ccc2[nH]c([C@H]3C[C@H](NC(=O)c4cc5c(cc4Cl)OCCO5)CCN3C)nc2c1 [Example 149, 7-chloro-N-[(2R,4R)-2-(5-methoxy-1H-benzimidazol-2-yl)-1-methylpiperidin-4-yl]-2,3-dihydro-1,4-benzodioxine-6-carboxamide triflouroacetate] |
| 101 | CN1CC[C@@H](NC(=O)c2ccc(N=[N+]=[N-])cc2)C[C@@H]1c1nc2ccccc2[nH]1 [Example 72, 4-azido-N-[(2R,4R)-2-(1H-benzimidazol-2-yl)-1-methylpiperidin-4-yl]benzamide] |
| 101 | CN1CC[C@@H](NC(=O)Nc2ccc(C(F)(F)F)nc2)C[C@@H]1c1nc2ccc(Cl)cc2[nH]1 [Example 73, 1-[(2R,4R)-2-(6-chloro-1H-benzimidazol-2-yl)-1-methylpiperidin-4-yl]-3-[6-(trifluoromethyl)pyridin-3-yl]urea hydrochloride] |
| 99.3 | CN1CC[C@@H](NC(=O)Cc2ccc(Cl)s2)C[C@@H]1c1nc2ccccc2[nH]1 [Example 78, N-[(2R,4R)-2-(1H-benzimidazol-2-yl)-1-methylpiperidin-4-yl]-2-(5-chloro-2-thienyl)acetamide hydrochloride] |
